System: subjects with pulmonary hypertension
Experiment: Systemic blood pressure (noninvasive) and heart rate monitoring during the study
Experimental: During the study right heart/pulmonary artery hemodynamics were measured as well as noninvasive systemic blood pressure monitoring and simultaneous RV echocardiography. Subjects were tested for the changes in pulmonary vascular resistance (PVR) measured by right heart catheterization and using thermodilution cardiac output measurement at time zero, at times 15, 30 and 45 minutes after completion of each nebulization dose.
Subjects were monitored closely for changes in blood pressure during the study. […] Subjects were continued to be monitored closely every 10 minutes for 2 hours.

[1] = Patient 4, nitrite 45 mg inhaled, 15 min
[2] = Patient 4, nitrite 45 mg inhaled, 30 min
[3] = Patient 4, nitrite 45 mg inhaled, 45 min
[4] = Patient 4, nitrite 45 mg inhaled, 60 min
[5] = Patient 4, nitrite 90 mg inhaled, 15 min
[6] = Patient 4, nitrite 90 mg inhaled, 30 min
[7] = Patient 4, nitrite 90 mg inhaled, 45 min
[8] = Patient 4, nitrite 90 mg inhaled, 60 min
[9] = Patient 5, nitrite 45 mg inhaled, 15 min
[10] = Patient 5, nitrite 45 mg inhaled, 30 min
[11] = Patient 5, nitrite 45 mg inhaled, 45 min
[12] = Patient 5, nitrite 45 mg inhaled, 60 min
[13] = Patient 5, nitrite 90 mg inhaled, 15 min
[14] = Patient 5, nitrite 90 mg inhaled, 30 min
[15] = Patient 5, nitrite 90 mg inhaled, 45 min
[16] = Patient 5, nitrite 90 mg inhaled, 60 min
[17] = at the doses tested (45 mg and 90 mg inhaled)

O=NO [nitrite, sodium nitrite]
Systemic DBP [1]: 73 | Systemic SBP [1]: 137 | Systemic mBP [1]: 94.34 | HR [2]: 69 | Systemic DBP [2]: 77 | Systemic SBP [2]: 134 | Systemic mBP [2]: 96.01 | HR [3]: 72 | Systemic DBP [3]: 71 | Systemic SBP [3]: 134 | Systemic mBP [3]: 92.01 | HR [4]: 71 | Systemic DBP [4]: 71 | Systemic SBP [4]: 131 | Systemic mBP [4]: 91.01 | HR [5]: 61 | Systemic DBP [5]: 64 | Systemic SBP [5]: 120 | Systemic mBP [5]: 82.68 | HR [6]: 70 | Systemic DBP [6]: 68 | Systemic SBP [6]: 126 | Systemic mBP [6]: 87.34 | HR [7]: 63 | Systemic DBP [7]: 63 | Systemic SBP [7]: 121 | Systemic mBP [7]: 82.34 | HR [8]: 63 | Systemic DBP [8]: 66 | Systemic SBP [8]: 129 | Systemic mBP [8]: 87.01 | HR [9]: 58 | Systemic DBP [9]: 49 | Systemic SBP [9]: 91 | Systemic mBP [9]: 63.01 | HR [10]: 53 | Systemic DBP [10]: 52 | Systemic SBP [10]: 95 | Systemic mBP [10]: 66.34 | HR [11]: 65 | Systemic DBP [11]: 52 | Systemic SBP [11]: 98 | Systemic mBP [11]: 67.34 | HR [12]: 62 | Systemic DBP [12]: 45 | Systemic SBP [12]: 95 | Systemic mBP [12]: 61.67 | HR [13]: 59 | Systemic DBP [13]: 53 | Systemic SBP [13]: 100 | Systemic mBP [13]: 68.68 | HR [14]: 61 | Systemic DBP [14]: 49 | Systemic SBP [14]: 102 | Systemic mBP [14]: 66.68 | HR [15]: 65 | Systemic DBP [15]: 47 | Systemic SBP [15]: 94 | Systemic mBP [15]: 62.67 | HR [16]: 58 | Systemic DBP [16]: 54 | Systemic SBP [16]: 107 | Systemic mBP [16]: 71.68 | HR (Patient 6, nitrite 45, 15 min): 95 | Systemic DBP (Patient 6, nitrite 45, 15 min): 58 | Systemic SBP (Patient 6, nitrite 45, 15 min): 110 | Systemic mBP (Patient 6, nitrite 45, 15 min): 75.3426 | HR (Patient 6, nitrite 45, 30 min): 99 | Systemic DBP (Patient 6, nitrite 45, 30 min): 65 | Systemic SBP (Patient 6, nitrite 45, 30 min): 127 | Systemic mBP (Patient 6, nitrite 45, 30 min): 85.6773 | HR (Patient 6, nitrite 45, 45 min): 96 | Systemic DBP (Patient 6, nitrite 45, 45 min): 66 | Systemic SBP (Patient 6, nitrite 45, 45 min): 126 | Systemic mBP (Patient 6, nitrite 45, 45 min): 86.0106 | HR (Patient 6, nitrite 45, 60 min): 97 | Systemic DBP (Patient 6, nitrite 45, 60 min): 65 | Systemic SBP (Patient 6, nitrite 45, 60 min): 128 | Systemic mBP (Patient 6, nitrite 45, 60 min): 86.0107 | HR (Patient 6, nitrite 90, 15 min): 93 | Systemic DBP (Patient 6, nitrite 90, 15 min): 59 | Systemic SBP (Patient 6, nitrite 90, 15 min): 112 | Systemic mBP (Patient 6, nitrite 90, 15 min): 76.6761 | HR (Patient 6, nitrite 90, 30 min): 95 | Systemic DBP (Patient 6, nitrite 90, 30 min): 66 | Systemic SBP (Patient 6, nitrite 90, 30 min): 110 | Systemic mBP (Patient 6, nitrite 90, 30 min): 80.6762 | HR (Patient 6, nitrite 90, 45 min): 90 | Systemic DBP (Patient 6, nitrite 90, 45 min): 60 | Systemic SBP (Patient 6, nitrite 90, 45 min): 114 | Systemic mBP (Patient 6, nitrite 90, 45 min): 78.0096 | HR (Patient 6, nitrite 90, 60 min): 91 | Systemic DBP (Patient 6, nitrite 90, 60 min): 58 | Systemic SBP (Patient 6, nitrite 90, 60 min): 111 | Systemic mBP (Patient 6, nitrite 90, 60 min): 75.676 | heart rate [17]: does not significantly affect | systemic blood pressure [17]: does not significantly affect

— patent publication US11986493B2 (University of Pittsburgh—Of the Commonwealth System of …, priority 2013, dated 2024)
